The values that follow come from article PMC7136958, “Targeting the pregnane X receptor using microbial metabolite mimicry” (EMBO Molecular Medicine, 2020).

Several values for one entry are separate records, joined by “and”; a condition that tells them apart may be missing. Equal entries are not always repeated. Where only a bound is given, the exact number is not on record here.

One data set has as its system IL-8 mRNA. As to the kind of experiment: TNF-α-induced IL-8 mRNA in human colonic enteroids (Calgary Protocol). The settings on record: 10 μM, pair-wise vs DMSO. Format: cell-based. Here is the method: Samples were immediately processed to yield isolated colonic crypts as previously described (Fernando et al, 2017). Isolated colonic crypts were embedded in Matrigel® (Corning) and cultured in Intesticult^tm Organoid Growth Media. Human organoids were pretreated for 6 h with either FKK5, FKK6, FKK9, or vehicle (DMSO), then stimulated with human recombinant TNF‐alpha in the presence of either treatment for an additional 12 h. Organoids were washed in PBS, disrupted in Tri Reagent® (Sigma, Oakville, ON, CAN), and frozen at −80°C. After thawing, chloroform was added, samples were centrifuged for 15 min, and the resulting aqueous phase was then added to equal volumes of 70% ethanol and further processed using the RNeasy mini kit (Qiagen). cDNA was synthesized using the QuantiTect RT kit (Qiagen) according to the manufacturer's protocol. Resulting cDNA was used as a template for quantitative real‐time PCR using Perfecta SYBR Green FastMix with ROX (QuantaBio). PCR and analysis were performed using a StepOne PCR System (Applied Biosystems). Gene expression was calculated relative to β‐actin expression and expressed as fold change of control. The primers used were as follows: Human®‐Actin (NM_001101), Human CYP3A4 (NM_001202855), and Human ABCB1 (NM_000927).

Data set [1] concerns the target T1, PXR (Homo sapiens, UniProt O75469).
T1 sequence (O75469 1-434): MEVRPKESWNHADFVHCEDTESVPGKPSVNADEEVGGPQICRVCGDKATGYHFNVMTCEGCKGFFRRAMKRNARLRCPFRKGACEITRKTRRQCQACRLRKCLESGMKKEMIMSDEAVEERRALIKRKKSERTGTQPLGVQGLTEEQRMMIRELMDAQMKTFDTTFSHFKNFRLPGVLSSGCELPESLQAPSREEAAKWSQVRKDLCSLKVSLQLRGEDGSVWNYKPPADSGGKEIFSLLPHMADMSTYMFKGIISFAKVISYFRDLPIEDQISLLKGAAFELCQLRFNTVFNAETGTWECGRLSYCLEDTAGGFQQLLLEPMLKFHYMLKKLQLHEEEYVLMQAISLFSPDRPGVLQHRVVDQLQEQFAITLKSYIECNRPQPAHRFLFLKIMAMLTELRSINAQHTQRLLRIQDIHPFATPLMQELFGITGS
As to the kind of experiment: PXR reporter (p3A4-luc luciferase) assay in LS180 cells transiently transfected with wild-type PXR. Conditions: for FOLD INDUCTION of PXR reporter luciferase activity: 24 h, over UT. Here is the method: Incubations were performed in four technical replicates. After the treatments, cells were lysed and luciferase activity was measured on Tecan Infinite M200 Pro plate reader (Schoeller Instruments, Prague, Czech Republic). The data are expressed as fold induction ± SD of luciferase activity over the control cells (agonistic mode—in the absence of a model ligand) or as a percentage of maximal activation ± SD (antagonistic mode—in the presence of a model ligand). […] For all the transfection experiments, specifically multiplexed transfections, the control wells were mock‐transfected ([…]). However, to exclude non‐specific binding of PXR (or other factors) upstream of the luciferase gene within non‐PXR‐binding elements, we performed pilot experiments in different cell passages (P11, P14, and P17) of LS174T cells using a mock luciferase plasmid (luciferase not containing an upstream PXR‐binding element of the CYP3A4 promoter).

The target of the next data set is T2, AhR (Homo sapiens, UniProt P35869).
T2 construct: endogenous in cells; host or cells: AZ-AHR (HepG2)
T2 sequence (P35869 11-848): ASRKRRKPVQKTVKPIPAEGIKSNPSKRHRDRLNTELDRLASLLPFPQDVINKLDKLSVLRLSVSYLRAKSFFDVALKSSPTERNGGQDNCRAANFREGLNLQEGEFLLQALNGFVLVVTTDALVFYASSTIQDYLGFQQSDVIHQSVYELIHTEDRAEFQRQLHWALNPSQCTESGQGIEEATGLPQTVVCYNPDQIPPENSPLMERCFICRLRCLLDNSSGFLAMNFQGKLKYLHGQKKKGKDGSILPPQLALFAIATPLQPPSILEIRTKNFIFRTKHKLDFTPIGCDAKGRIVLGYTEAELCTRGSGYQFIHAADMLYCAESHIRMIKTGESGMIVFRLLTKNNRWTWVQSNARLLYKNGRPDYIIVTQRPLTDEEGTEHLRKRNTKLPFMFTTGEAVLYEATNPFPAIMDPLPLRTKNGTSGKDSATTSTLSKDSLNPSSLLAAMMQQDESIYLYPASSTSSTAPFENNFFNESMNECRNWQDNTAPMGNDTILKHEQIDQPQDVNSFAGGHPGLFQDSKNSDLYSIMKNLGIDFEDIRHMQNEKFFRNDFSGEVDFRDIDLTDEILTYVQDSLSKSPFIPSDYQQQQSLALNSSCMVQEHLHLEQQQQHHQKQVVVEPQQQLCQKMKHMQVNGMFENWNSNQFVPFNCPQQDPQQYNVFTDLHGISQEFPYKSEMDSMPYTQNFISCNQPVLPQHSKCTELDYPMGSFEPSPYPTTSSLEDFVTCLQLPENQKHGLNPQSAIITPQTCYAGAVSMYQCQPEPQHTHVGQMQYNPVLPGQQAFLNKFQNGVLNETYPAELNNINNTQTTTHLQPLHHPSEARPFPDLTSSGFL
Kind of data set: AhR reporter assay, HepG2 cells stably expressing pCYP1A1 luciferase (AZ-AHR). Format: cell-based. Conditions: for FOLD INDUCTION (AZ-AHR luciferase): AZ-AHR cells, fold vs DMSO. Here is the method: Incubations were performed in four technical replicates.
Background: A reporter such as luciferase makes a cellular process visible.

The subject of data set [2] is PXR occupancy of CYP3A4 and MDR1 promoter. Kind of data set: Chromatin immunoprecipitation (ChIP) in PXR-transfected LS174T cells. Conditions: 10 μM; relative to DMSO = 1; each column a repeat experiment (Fig 1d).
Method: LS174T cells were transfected with pSG5‐PXR (2 μg/plate/1 × 10^7 cells). […] Briefly, cells were chemically cross‐linked with formaldehyde in culture media for 15 min at room temperature. […] Cells were rinsed twice with cold PBS (phosphate‐buffered saline) (pH 7.5) and scraped in PBS supplemented with PIC (protease inhibitor cocktail).
Cell pellets were collected and immediately resuspended in immunoprecipitation (IP) buffer (150 mM NaCl (sodium chloride), 50 mM Tris–HCl at pH 7.5, 5 mM EDTA (ethylenediaminetetraacetic acid), 0.5% NP‐40, 1% Triton X‐100). The nuclei were centrifuged at 12,000 × g for 1 min and resuspended in fresh IP buffer. Chromatin was sheared by sonication to an average size of 0.2‐0.9 kb. Lysates were cleared by centrifugation at 12,000 × g for 10 min. […] 10% (wt/vol) Chelex 100 was added to the beads followed by boiling of the suspension and centrifugation at 12,000 × g for 1 min to obtain chromatin.
Purified chromatin DNA was used to perform RT–qPCR. […] Data were analyzed using SDS 2.2.1 program (ABI Biotechnology).
Data set [3] addresses T1, PXR. Kind of data set: Ligand efficiency metric (LEM) analysis. The arrangement: expressed in transfected cells; host or cells: LS180. Conditions: NSEI-nBEI plane, from PXR reporter Emax. The source says:
Ligand efficiency metric (LEM) analysis for FKK ligand efficiency. The ligand efficiency metrics (LEMs) of compounds FKK1 to 10 and FKK999 as a reference compound, have been analyzed by using a web tool named AtlasCBS which represents LEMs as variables for a Cartesian mapping of chemico-biological space (CBS). In particular, Cartesian planes combine three critical variables in drug discovery (affinity, size, and polarity) into easily interpretable ‘efficiency planes’ useful to guide a drug discovery process. In the Cartesian plane, each target:ligand pair appears as a point whose coordinates are given by pairs of values derived from the affinity of the ligand toward the target (Ki or equivalent) in relation to its size (MW or number of non-hydrogen atoms NHA), and its polarity (expressed as Polar Surface Area, PSA, or number of polar atoms, NPOL = count of N + O). The first one represents a size-related LEM and the second a polarity-related LEM. Consistently, compounds that correspond to marketed drugs typically occupy the upper right quadrant of the plots (‘Nort h-East’ direction, NE), where both the efficiency -pe r-size and efficiency -per-polarity are optimized 1,2.
Our results are represented in the efficiency plane NS EI-nBEI where:
NSEI = –log Ki/NPOL (N, O) = pKi/NPOL (N, O)
As a measure of activity of the above compounds, the reciprocal of the percentage efficacy values (1/Efficacy [%]) obtained in the PXR-dependent luciferase activity test (Emax values from Fig. 1) were used in lieu of the affinity constants (Ki in the above equations). FKK4 would appear as the most efficient compound since it is placed in the NE panel (GL, unpublished observations). However, this congener might suffer from metabolic liability with its N-protecting group possibly generating toxic aldehydes by oxidative cleavage in vivo. Unambiguously, the two most efficient compounds besides FKK4 are FKK5 and FKK6 which were therefore considered suitable lead compounds, as al so

The test system of the next data set is rats. The arrangement: method as in Thermo Fisher Scientific Safety Sheet data. Conditions: oral in rats; ref Thermo Fisher Scientific Safety Sheet data; cited from earlier work.

With `CCOCn1c(C(O)(Cc2cc3ccccc3[nH]2)c2ccncc2)cc2ccccc21` (racemic) [FKK9], in the data set on IL-8 mRNA, the “TNF-α-induced IL-8 mRNA levels” value is listed as “did not show significant effects”. Besides, the “aver (mean luciferase signal of H1-H4)” value worked out at 4233.7 on PXR [1] (1 nM); 4676.8 on PXR [1] (10 nM); 5944.0 at PXR [1] (100 nM); 19145.3 on PXR [1] (1 uM); 98175.8 on PXR [1] (10 uM); 68593.5 on PXR [1] (25 uM). For the same molecule, the “FOLD INDUCTION of PXR reporter luciferase activity” value at PXR [1] (1 nM) is 1.1 fold; on PXR [1] (10 nM) it was 1.2 fold; on PXR [1] (100 nM), 1.6 fold; on PXR [1] (1 uM), 5.0 fold; on PXR [1] (10 uM), 25.8 fold; on PXR [1] (25 uM), 18.0 fold. On AhR (10 μM), this molecule gave an AhR activation of more than 100 fold. Moreover, the “FOLD INDUCTION (AZ-AHR luciferase)” value is recorded as 0.6 fold at AhR (1 nM); 0.4 fold at AhR (10 nM); 1.3 fold on AhR (100 nM); 15.9 fold on AhR (1µM); 584.9 fold at AhR (10 µM). Further, in data set [2], the “CYP3A4 Fold Expression (2-ΔΔCt)” value is 0.943 and 0.9893 and 1.172 and 1.777.
As for `CC#CC(O)(c1ccncc1)c1cc2ccccc2n1COCC` (stereo not shown) [FKK4], the “aver (mean luciferase signal of H1-H4)” value on PXR [1] (1 nM) is listed as 4365.5; at PXR [1] (10 nM), 4279.3; at PXR [1] (100 nM), 5499.3; on PXR [1] (1 uM), 21392.8; on PXR [1] (10 uM), 102793.8; at PXR [1] (25 uM), 122639.5. Besides, the “FOLD INDUCTION of PXR reporter luciferase activity” value came to 1.4 fold on PXR [1] (1 nM); 1.3 fold at PXR [1] (10 nM); 1.7 fold on PXR [1] (100 nM); 6.7 fold on PXR [1] (1 uM); 32.2 fold on PXR [1] (10 uM); 38.4 fold on PXR [1] (25 uM). Further, the “AhR activation (in words)” value on AhR is listed as “variable degrees of dose‐dependent AhR activation profiles”. Also, the “FOLD INDUCTION (AZ-AHR luciferase)” value at AhR (1 nM) is on record as 0.8 fold; on AhR (10 nM), 0.644 fold; on AhR (100 nM), 0.8 fold; on AhR (1µM) it was 1.2 fold; at AhR (10 µM), 7.1 fold. Besides, the LEM analysis prediction result at PXR [3] is “efficient agonist”.
For `c1ccc2[nH]ccc2c1` [indole], in the data set on rats, the LD50 is recorded as ~ 1 g/kg.
